Results reported in PubChem BioAssay AID272 (DTP/NCI, 2004).
Values joined by “and” are separate entries in the source; they are usually repeats but may differ in a detail not shown here. Equal values may be shown once. Records with an inconclusive call do not appear.

System: Lewis lung carcinoma i.m., BDF1 mice, T/C %
Test: NCI In Vivo Anticancer Drug Screen. Data for tumor model Lewis Lung Carcinoma (intramuscular) in B6D2F1 (BDF1) mice
Protocol: The antitumor activity of compounds was measured in mice bearing transplantable tumors. Survival or tumor size were measured and the results are expressed as the measurement made in the treated group (T) divided by the measurement made in the vehicle treated control group (C). The tumor model used in this assay is Lewis Lung Carcinoma (intramuscular) in B6D2F1 (BDF1) mice

## Cc1c(N)nc([C@H](CC(N)=O)NC[C@H](N)C(N)=O)nc1C(=O)N[C@H](C(=O)N[C@H](C)[C@@H](O)[C@H](C)C(=O)N[C@H](C(=O)NCCc1nc(-c2nc(C(=O)NCCC[S+](C)C)cs2)cs1)[C@@H](C)O)C(OC1OC(CO)C(O)C(O)C1OC1OC(CO)C(O)C(OC(N)=O)C1O)c1cnc[nH]1 (some centres not stated)
endpoint: mean tumor weight (est.), dose: 2.5 mg/kg/injection, schedule: Q01DX009 (ip), vehicle: saline, higher = larger tumour
  T/C: 44 % of control
endpoint: mean tumor weight (est.), dose: 8.4 mg/kg/injection, schedule: Q01DX009 (ip), vehicle: saline, higher = larger tumour
  T/C: 24 % of control and 42 % of control
endpoint: mean tumor weight (est.), dose: 14.0 mg/kg/injection, schedule: Q01DX009 (ip), vehicle: saline, higher = larger tumour
  T/C: 27 % of control and 37 % of control
endpoint: mean tumor weight (est.), dose: 23.0 mg/kg/injection, schedule: Q01DX009 (ip), vehicle: saline, higher = larger tumour
  T/C: 14 % of control and 26 % of control
endpoint: mean tumor weight (est.), dose: 39.0 mg/kg/injection, schedule: Q01DX009 (ip), vehicle: saline, higher = larger tumour
  T/C: 12 % of control
endpoint: mean tumor weight, dose: 3.0 mg/kg/injection, schedule: Q01DX011 (ip), vehicle: saline, higher = larger tumour
  T/C: 38 % of control
endpoint: mean tumor weight, dose: 3.75 mg/kg/injection, schedule: Q01DX011 (sc), vehicle: saline, higher = larger tumour
  T/C: 60 % of control
endpoint: mean tumor weight, dose: 4.0 mg/kg/injection, schedule: Q01DX011 (ip), vehicle: saline, higher = larger tumour
  T/C: 18 % of control
endpoint: mean tumor weight, dose: 5.0 mg/kg/injection, schedule: Q01DX011 (ip), vehicle: saline, higher = larger tumour
  T/C: 12 % of control and 15 % of control
endpoint: mean tumor weight, dose: 6.0 mg/kg/injection, schedule: Q01DX011 (ip), vehicle: saline, higher = larger tumour
  T/C: 19 % of control
endpoint: mean tumor weight, dose: 7.5 mg/kg/injection, schedule: Q01DX011 (sc), vehicle: saline, higher = larger tumour
  T/C: 23 % of control
endpoint: mean tumor weight, dose: 8.4 mg/kg/injection, schedule: Q01DX011 (ip), vehicle: saline, higher = larger tumour
  T/C: 7 % of control
endpoint: mean tumor weight, dose: 8.5 mg/kg/injection, schedule: Q01DX011 (ip), vehicle: saline, higher = larger tumour
  T/C: 19 % of control
endpoint: mean tumor weight, dose: 10.0 mg/kg/injection, schedule: Q04DX003 (ip), vehicle: saline, higher = larger tumour
  T/C: 56 % of control
endpoint: mean tumor weight, dose: 12.5 mg/kg/injection, schedule: Q04DX003 (ip), vehicle: saline, higher = larger tumour
  T/C: 23 % of control
endpoint: mean tumor weight, dose: 14.0 mg/kg/injection, schedule: Q01DX011 (ip), vehicle: saline, higher = larger tumour
  T/C: 6 % of control
endpoint: mean tumor weight, dose: 18.0 mg/kg/injection, schedule: Q04DX003 (ip), vehicle: saline, higher = larger tumour
  T/C: 35 % of control
endpoint: mean tumor weight, dose: 20.0 mg/kg/injection, schedule: Q01DX011 (ip), vehicle: saline, higher = larger tumour
  T/C: 2 % of control and 12 % of control
endpoint: mean tumor weight, dose: 20.0 mg/kg/injection, schedule: Q04DX003 (ip), vehicle: saline, higher = larger tumour
  T/C: 43 % of control
endpoint: mean tumor weight, dose: 23.0 mg/kg/injection, schedule: Q01DX011 (ip), vehicle: saline, higher = larger tumour
  T/C: 5 % of control
endpoint: mean tumor weight, dose: 23.0 mg/kg/injection, schedule: Q04DX003 (ip), vehicle: saline, higher = larger tumour
  T/C: 40 % of control
endpoint: mean tumor weight, dose: 25.0 mg/kg/injection, schedule: Q01DX001 (ip), vehicle: saline, higher = larger tumour
  T/C: 51 % of control
endpoint: mean tumor weight, dose: 25.0 mg/kg/injection, schedule: Q04DX003 (ip), vehicle: saline, higher = larger tumour
  T/C: 18 % of control
endpoint: mean tumor weight, dose: 36.0 mg/kg/injection, schedule: Q01DX001 (ip), vehicle: saline, higher = larger tumour
  T/C: 65 % of control
endpoint: mean tumor weight, dose: 36.0 mg/kg/injection, schedule: Q04DX003 (ip), vehicle: saline, higher = larger tumour
  T/C: 18 % of control
endpoint: mean tumor weight, dose: 39.0 mg/kg/injection, schedule: Q04DX003 (ip), vehicle: saline, higher = larger tumour
  T/C: 19 % of control
endpoint: mean tumor weight, dose: 40.0 mg/kg/injection, schedule: Q04DX003 (ip), vehicle: saline, higher = larger tumour
  T/C: 31 % of control
endpoint: mean tumor weight, dose: 51.0 mg/kg/injection, schedule: Q01DX001 (ip), vehicle: saline, higher = larger tumour
  T/C: 35 % of control
endpoint: median survival time, dose: 2.0 mg/kg/injection, schedule: Q01DX011 (ip), vehicle: saline, higher = longer survival
  T/C: 153 % of control
endpoint: median survival time, dose: 2.5 mg/kg/injection, schedule: Q01DX014 (ip), vehicle: saline, higher = longer survival
  T/C: 113 % of control
endpoint: median survival time, dose: 3.0 mg/kg/injection, schedule: Q01DX004 (ip), vehicle: saline, higher = longer survival
  T/C: 116 % of control
endpoint: median survival time, dose: 3.0 mg/kg/injection, schedule: Q09DX009 (ip), vehicle: saline, higher = longer survival
  T/C: 119 % of control and 120 % of control
endpoint: median survival time, dose: 3.75 mg/kg/injection, schedule: Q01DX011 (sc), vehicle: saline, higher = longer survival
  T/C: 158 % of control
endpoint: median survival time, dose: 4.0 mg/kg/injection, schedule: Q01DX011 (ip), vehicle: saline, higher = longer survival
  T/C: 119 % of control
endpoint: median survival time, dose: 5.0 mg/kg/injection, schedule: Q01DX004 (ip), vehicle: saline, higher = longer survival
  T/C: 123 % of control
endpoint: median survival time, dose: 5.0 mg/kg/injection, schedule: Q01DX009 (ip), vehicle: none, higher = longer survival
  T/C: 150 % of control and 163 % of control
endpoint: median survival time, dose: 5.0 mg/kg/injection, schedule: Q01DX011 (ip), vehicle: saline, higher = longer survival
  T/C: 150 % of control
endpoint: median survival time, dose: 5.0 mg/kg/injection, schedule: Q01DX014 (ip), vehicle: saline, higher = longer survival
  T/C: 123 % of control
endpoint: median survival time, dose: 5.0 mg/kg/injection, schedule: Q09DX009 (ip), vehicle: saline, higher = longer survival
  T/C: 150 % of control
endpoint: median survival time, dose: 6.5 mg/kg/injection, schedule: Q01DX011 (ip), vehicle: saline, higher = longer survival
  T/C: 158 % of control
endpoint: median survival time, dose: 7.5 mg/kg/injection, schedule: Q01DX011 (sc), vehicle: saline, higher = longer survival
  T/C: 153 % of control
endpoint: median survival time, dose: 8.0 mg/kg/injection, schedule: Q01DX011 (ip), vehicle: saline, higher = longer survival
  T/C: 150 % of control
endpoint: median survival time, dose: 8.4 mg/kg/injection, schedule: Q01DX004 (ip), vehicle: saline, higher = longer survival
  T/C: 123 % of control
endpoint: median survival time, dose: 8.4 mg/kg/injection, schedule: Q01DX009 (ip), vehicle: none, higher = longer survival
  T/C: 113 % of control and 115 % of control
endpoint: median survival time, dose: 8.4 mg/kg/injection, schedule: Q09DX009 (ip), vehicle: saline, higher = longer survival
  T/C: 116 % of control
endpoint: median survival time, dose: 10.0 mg/kg/injection, schedule: Q01DX011 (ip), vehicle: saline, higher = longer survival
  T/C: 167 % of control
endpoint: median survival time, dose: 10.0 mg/kg/injection, schedule: Q01DX014 (ip), vehicle: saline, higher = longer survival
  T/C: 124 % of control
endpoint: median survival time, dose: 10.0 mg/kg/injection, schedule: Q04DX003 (ip), vehicle: saline, higher = longer survival
  T/C: 107 % of control and 108 % of control
endpoint: median survival time, dose: 10.8 mg/kg/injection, schedule: Q01DX011 (ip), vehicle: saline, higher = longer survival
  T/C: 166 % of control
endpoint: median survival time, dose: 12.5 mg/kg/injection, schedule: Q04DX003 (ip), vehicle: saline, higher = longer survival
  T/C: 122 % of control
endpoint: median survival time, dose: 14.0 mg/kg/injection, schedule: Q01DX009 (ip), vehicle: none, higher = longer survival
  T/C: 159 % of control
endpoint: median survival time, dose: 14.0 mg/kg/injection, schedule: Q04DX003 (ip), vehicle: saline, higher = longer survival
  T/C: 112 % of control
endpoint: median survival time, dose: 15.0 mg/kg/injection, schedule: Q01DX011 (sc), vehicle: saline, higher = longer survival
  T/C: 161 % of control
endpoint: median survival time, dose: 16.0 mg/kg/injection, schedule: Q01DX011 (ip), vehicle: saline, higher = longer survival
  T/C: 150 % of control
endpoint: median survival time, dose: 18.0 mg/kg/injection, schedule: Q01DX011 (ip), vehicle: saline, higher = longer survival
  T/C: 152 % of control and 170 % of control
endpoint: median survival time, dose: 18.0 mg/kg/injection, schedule: Q04DX003 (ip), vehicle: saline, higher = longer survival
  T/C: 124 % of control
endpoint: median survival time, dose: 20.0 mg/kg/injection, schedule: Q01DX011 (ip), vehicle: saline, higher = longer survival
  T/C: 165 % of control
endpoint: median survival time, dose: 20.0 mg/kg/injection, schedule: Q01DX014 (ip), vehicle: saline, higher = longer survival
  T/C: 75 % of control
endpoint: median survival time, dose: 20.0 mg/kg/injection, schedule: Q04DX003 (ip), vehicle: saline, higher = longer survival
  T/C: 157 % of control and 160 % of control
endpoint: median survival time, dose: 23.0 mg/kg/injection, schedule: Q01DX009 (ip), vehicle: none, higher = longer survival
  T/C: 64 % of control and 95 % of control
endpoint: median survival time, dose: 23.0 mg/kg/injection, schedule: Q04DX003 (ip), vehicle: saline, higher = longer survival
  T/C: 112 % of control
endpoint: median survival time, dose: 23.0 mg/kg/injection, schedule: Q09DX009 (ip), vehicle: saline, higher = longer survival
  T/C: 169 % of control
endpoint: median survival time, dose: 25.0 mg/kg/injection, schedule: Q01DX001 (ip), vehicle: saline, higher = longer survival
  T/C: 107 % of control
endpoint: median survival time, dose: 30.0 mg/kg/injection, schedule: Q01DX011 (ip), vehicle: saline, higher = longer survival
  T/C: 166 % of control
endpoint: median survival time, dose: 36.0 mg/kg/injection, schedule: Q01DX001 (ip), vehicle: saline, higher = longer survival
  T/C: 124 % of control
endpoint: median survival time, dose: 39.0 mg/kg/injection, schedule: Q01DX004 (ip), vehicle: saline, higher = longer survival
  T/C: 54 % of control
endpoint: median survival time, dose: 39.0 mg/kg/injection, schedule: Q04DX003 (ip), vehicle: saline, higher = longer survival
  T/C: 103 % of control and 120 % of control
endpoint: median survival time, dose: 40.0 mg/kg/injection, schedule: Q01DX014 (ip), vehicle: saline, higher = longer survival
  T/C: 48 % of control
endpoint: median survival time, dose: 40.0 mg/kg/injection, schedule: Q04DX003 (ip), vehicle: saline, higher = longer survival
  T/C: 97 % of control
endpoint: median survival time, dose: 51.0 mg/kg/injection, schedule: Q01DX001 (ip), vehicle: saline, higher = longer survival
  T/C: 122 % of control
endpoint: median survival time, dose: 65.0 mg/kg/injection, schedule: Q04DX003 (ip), vehicle: saline, higher = longer survival
  T/C: 108 % of control
endpoint: median survival time, dose: 80.0 mg/kg/injection, schedule: Q04DX003 (ip), vehicle: saline, higher = longer survival
  T/C: 60 % of control
